Laboratory results reported in the kinase profiling compilation of Christmann-Franck et al. (2016).
Values belong to the compound of their own block, whether it stands above or below them.

What was measured:
Assay in all cases: radiometric filter-binding kinase assay, Kinase HotSpot
Settings in all cases: compound 0.5 µM; ATP 10 µM
CDK6 CCND3 (human) = CDK6 CCND3 (human) (UniProt P30281+Q00534)
PRKCH (human) = PRKCH (human) (UniProt P24723)
CDK4 CCND3 (human) = CDK4 CCND3 (human) (UniProt P30281+P11802)
MAP3K7 TAB1 (human) = MAP3K7 TAB1 (human) (UniProt O43318+Q15750)
CDK3 CCNE1 (human) = CDK3 CCNE1 (human) (UniProt Q00526+P24864)
CDK2 CCNE1 (human) = CDK2 CCNE1 (human) (UniProt P24941+P24864)
STK33 (human) = STK33 (human) (UniProt Q9BYT3)
CDK4 CCND1 (human) = CDK4 CCND1 (human) (UniProt P24385+P11802)
CDK9 CCNK (human) = CDK9 CCNK (human) (UniProt O75909+P50750)
CDK2 CCNA2 (human) = CDK2 CCNA2 (human) (UniProt P24941+P20248)
CDK1 CCNA2 (human) = CDK1 CCNA2 (human) (UniProt P06493+P20248)
CDK6 CCND1 (human) = CDK6 CCND1 (human) (UniProt Q00534+P24385)
CDK7 CCNH MNAT1 (human) = CDK7 CCNH MNAT1 (human) (UniProt P50613+P51948+P51946)
CDK5 CDK5R1 p35 (human) = CDK5 CDK5R1 p35 (human) (UniProt Q00535+Q15078)
CDK1 CCNB1 (human) = CDK1 CCNB1 (human) (UniProt P06493+P14635)
CDK9 CCNT1 (human) = CDK9 CCNT1 (human) (UniProt P50750+O60563)
DYRK1B (human) = DYRK1B (human) (UniProt Q9Y463)
CDK5 CDK5R1 p25 (human) = CDK5 CDK5R1 p25 (human) (UniProt Q00535+Q15078)
FRK (human) = FRK (human) (UniProt P42685)
EPHB2 (human) = EPHB2 (human) (UniProt P29323)
TLK2 (human) = TLK2 (human) (UniProt Q86UE8)
LTK (human) = LTK (human) (UniProt P29376)

Chain of STK33 (human) (Q9BYT3 whole entry, looked up): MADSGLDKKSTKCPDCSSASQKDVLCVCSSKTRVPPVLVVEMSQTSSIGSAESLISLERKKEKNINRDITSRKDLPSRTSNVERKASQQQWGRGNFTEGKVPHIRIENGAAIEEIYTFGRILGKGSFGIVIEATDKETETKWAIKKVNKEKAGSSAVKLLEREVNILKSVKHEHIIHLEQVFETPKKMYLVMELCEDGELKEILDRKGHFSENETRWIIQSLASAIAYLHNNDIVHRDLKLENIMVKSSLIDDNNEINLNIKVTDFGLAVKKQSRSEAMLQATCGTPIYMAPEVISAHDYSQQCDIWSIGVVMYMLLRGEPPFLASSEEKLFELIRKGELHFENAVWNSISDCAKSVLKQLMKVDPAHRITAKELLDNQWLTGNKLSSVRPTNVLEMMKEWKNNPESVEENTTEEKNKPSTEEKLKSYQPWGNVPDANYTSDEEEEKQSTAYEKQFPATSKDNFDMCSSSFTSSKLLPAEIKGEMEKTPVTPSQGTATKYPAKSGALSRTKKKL
Chain of DYRK1B (human) (Q9Y463 whole entry, looked up): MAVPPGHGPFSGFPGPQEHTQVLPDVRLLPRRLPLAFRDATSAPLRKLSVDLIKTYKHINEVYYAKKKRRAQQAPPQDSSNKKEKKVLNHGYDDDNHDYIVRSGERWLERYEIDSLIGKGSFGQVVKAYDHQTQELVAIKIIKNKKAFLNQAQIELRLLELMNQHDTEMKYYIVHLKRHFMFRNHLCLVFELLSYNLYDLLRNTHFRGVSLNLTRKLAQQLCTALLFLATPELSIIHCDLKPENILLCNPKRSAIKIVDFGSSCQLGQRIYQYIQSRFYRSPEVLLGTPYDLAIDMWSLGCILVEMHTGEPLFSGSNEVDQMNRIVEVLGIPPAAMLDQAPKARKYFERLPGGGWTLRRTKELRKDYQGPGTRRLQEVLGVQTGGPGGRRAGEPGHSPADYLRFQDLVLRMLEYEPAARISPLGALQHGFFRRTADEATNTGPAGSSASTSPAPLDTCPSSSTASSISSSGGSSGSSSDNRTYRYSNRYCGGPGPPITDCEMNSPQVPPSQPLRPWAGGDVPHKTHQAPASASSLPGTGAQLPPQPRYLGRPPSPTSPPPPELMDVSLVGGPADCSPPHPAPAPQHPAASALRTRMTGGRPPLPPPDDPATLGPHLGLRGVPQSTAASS
Chain of PRKCH (human) (P24723 whole entry, looked up): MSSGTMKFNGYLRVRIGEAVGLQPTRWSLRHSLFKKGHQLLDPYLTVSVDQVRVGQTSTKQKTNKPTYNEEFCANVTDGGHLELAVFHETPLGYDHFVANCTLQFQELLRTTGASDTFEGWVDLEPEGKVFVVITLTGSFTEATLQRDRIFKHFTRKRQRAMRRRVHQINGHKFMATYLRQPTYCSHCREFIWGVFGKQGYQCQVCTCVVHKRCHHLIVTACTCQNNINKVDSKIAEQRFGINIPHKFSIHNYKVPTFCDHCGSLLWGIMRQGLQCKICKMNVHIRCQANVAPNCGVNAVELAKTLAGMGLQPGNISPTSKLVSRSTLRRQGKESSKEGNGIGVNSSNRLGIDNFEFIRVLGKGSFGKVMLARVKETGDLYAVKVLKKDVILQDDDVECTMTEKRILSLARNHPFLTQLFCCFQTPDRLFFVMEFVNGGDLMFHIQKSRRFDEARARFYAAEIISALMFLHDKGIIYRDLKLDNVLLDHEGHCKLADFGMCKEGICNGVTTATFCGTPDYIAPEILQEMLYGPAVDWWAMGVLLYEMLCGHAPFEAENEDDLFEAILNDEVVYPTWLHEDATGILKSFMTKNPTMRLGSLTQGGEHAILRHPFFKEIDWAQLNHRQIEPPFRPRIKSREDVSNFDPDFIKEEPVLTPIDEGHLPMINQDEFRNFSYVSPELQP
Chain of MAP3K7 TAB1 (human) (O43318 whole entry, looked up): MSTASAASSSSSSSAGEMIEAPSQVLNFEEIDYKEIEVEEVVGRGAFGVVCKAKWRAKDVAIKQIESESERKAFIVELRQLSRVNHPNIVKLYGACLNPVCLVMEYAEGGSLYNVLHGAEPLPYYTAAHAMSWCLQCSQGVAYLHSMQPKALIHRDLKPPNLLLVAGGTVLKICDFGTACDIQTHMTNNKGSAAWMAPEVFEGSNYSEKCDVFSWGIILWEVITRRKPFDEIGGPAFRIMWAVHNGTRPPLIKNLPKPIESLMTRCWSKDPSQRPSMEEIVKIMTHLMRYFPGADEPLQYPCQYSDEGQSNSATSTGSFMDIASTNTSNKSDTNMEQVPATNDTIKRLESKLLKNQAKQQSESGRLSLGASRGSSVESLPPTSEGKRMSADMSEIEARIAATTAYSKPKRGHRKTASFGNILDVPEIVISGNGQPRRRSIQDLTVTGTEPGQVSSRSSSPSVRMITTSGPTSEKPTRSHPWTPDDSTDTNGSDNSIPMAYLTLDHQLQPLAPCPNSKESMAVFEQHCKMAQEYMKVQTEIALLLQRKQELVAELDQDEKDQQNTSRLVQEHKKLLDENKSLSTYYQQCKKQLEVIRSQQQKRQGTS
Chain of MAP3K7 TAB1 (human) (Q15750 whole entry, looked up): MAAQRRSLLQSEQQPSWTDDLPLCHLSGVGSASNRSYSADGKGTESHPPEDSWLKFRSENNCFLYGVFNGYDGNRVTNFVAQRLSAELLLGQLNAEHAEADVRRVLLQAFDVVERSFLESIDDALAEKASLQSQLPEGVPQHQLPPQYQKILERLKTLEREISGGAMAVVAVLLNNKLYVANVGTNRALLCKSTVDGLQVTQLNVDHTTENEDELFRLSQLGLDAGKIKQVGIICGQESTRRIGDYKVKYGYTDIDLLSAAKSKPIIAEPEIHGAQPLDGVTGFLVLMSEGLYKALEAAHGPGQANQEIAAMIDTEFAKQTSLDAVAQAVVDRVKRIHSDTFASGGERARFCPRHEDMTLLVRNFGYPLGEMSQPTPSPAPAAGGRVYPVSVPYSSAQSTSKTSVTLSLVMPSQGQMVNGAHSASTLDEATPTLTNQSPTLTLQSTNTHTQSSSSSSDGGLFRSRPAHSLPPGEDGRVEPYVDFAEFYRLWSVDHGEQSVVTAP
Chain of CDK9 CCNT1 (human) (O60563 whole entry, looked up): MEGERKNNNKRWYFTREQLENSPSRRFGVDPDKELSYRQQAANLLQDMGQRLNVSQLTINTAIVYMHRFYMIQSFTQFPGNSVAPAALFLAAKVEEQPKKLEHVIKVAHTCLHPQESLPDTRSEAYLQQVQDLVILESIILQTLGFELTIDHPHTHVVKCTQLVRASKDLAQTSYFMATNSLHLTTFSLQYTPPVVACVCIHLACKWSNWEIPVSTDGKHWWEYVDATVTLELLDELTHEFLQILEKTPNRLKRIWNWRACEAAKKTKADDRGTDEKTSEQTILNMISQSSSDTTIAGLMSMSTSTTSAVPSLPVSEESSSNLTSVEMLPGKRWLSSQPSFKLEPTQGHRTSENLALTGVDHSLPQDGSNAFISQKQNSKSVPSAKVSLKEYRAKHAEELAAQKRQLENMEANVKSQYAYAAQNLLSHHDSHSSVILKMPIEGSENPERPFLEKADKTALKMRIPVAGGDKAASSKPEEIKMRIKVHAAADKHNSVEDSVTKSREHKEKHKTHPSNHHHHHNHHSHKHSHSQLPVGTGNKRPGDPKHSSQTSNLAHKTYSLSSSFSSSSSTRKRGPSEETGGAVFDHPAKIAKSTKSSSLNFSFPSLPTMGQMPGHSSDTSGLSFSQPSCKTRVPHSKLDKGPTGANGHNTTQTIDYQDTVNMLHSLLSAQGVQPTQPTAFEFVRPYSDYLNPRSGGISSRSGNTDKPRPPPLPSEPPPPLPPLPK
Chain of CDK9 CCNT1 (human) (P50750 whole entry, looked up): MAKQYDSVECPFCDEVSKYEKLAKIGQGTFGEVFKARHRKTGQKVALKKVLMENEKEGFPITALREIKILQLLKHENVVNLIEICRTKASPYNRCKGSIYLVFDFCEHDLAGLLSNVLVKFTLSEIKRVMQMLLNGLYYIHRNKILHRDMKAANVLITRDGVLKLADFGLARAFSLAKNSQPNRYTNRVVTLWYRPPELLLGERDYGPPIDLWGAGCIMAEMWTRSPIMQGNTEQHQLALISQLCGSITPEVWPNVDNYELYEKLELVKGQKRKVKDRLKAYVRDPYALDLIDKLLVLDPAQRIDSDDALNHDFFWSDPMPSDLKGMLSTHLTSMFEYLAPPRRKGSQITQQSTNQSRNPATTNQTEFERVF
Chain of CDK9 CCNK (human) (O75909 whole entry, looked up): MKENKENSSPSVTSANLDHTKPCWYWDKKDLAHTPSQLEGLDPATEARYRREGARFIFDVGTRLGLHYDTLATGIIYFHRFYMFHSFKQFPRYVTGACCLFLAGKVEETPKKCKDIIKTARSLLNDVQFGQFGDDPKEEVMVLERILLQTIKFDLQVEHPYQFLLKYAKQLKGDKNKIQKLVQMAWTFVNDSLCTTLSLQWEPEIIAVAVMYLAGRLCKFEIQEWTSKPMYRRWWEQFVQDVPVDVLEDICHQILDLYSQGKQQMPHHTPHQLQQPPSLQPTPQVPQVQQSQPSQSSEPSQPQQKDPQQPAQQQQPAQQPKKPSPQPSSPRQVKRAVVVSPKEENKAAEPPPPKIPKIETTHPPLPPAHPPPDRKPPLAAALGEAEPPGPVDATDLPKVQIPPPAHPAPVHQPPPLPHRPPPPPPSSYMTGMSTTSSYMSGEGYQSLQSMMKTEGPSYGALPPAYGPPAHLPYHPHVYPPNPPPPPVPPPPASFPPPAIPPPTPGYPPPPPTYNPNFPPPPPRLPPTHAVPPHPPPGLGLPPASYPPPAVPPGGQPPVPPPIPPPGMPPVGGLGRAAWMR
Chain of CDK9 CCNK (human) (P50750 whole entry, looked up): as the sequence (P50750 whole entry, looked up) above

SMILES: COC[C@H]1OC(=O)c2coc3c2[C@@]1(C)C1=C(C3=O)[C@@H]2CCC(=O)[C@@]2(C)C[C@H]1OC(C)=O
residual activity (CDK6 CCND3 (human)): 85.8%
residual activity (PRKCH (human)): 100%
residual activity (CDK4 CCND3 (human)): 98.8%
residual activity (MAP3K7 TAB1 (human)): 97.2%
residual activity (CDK3 CCNE1 (human)): 95.2%
residual activity (CDK2 CCNE1 (human)): 105%
residual activity (STK33 (human)): 88.2%
residual activity (CDK4 CCND1 (human)): 94.8%
residual activity (CDK9 CCNK (human)): 107%
residual activity (CDK2 CCNA2 (human)): 93.5%
residual activity (CDK1 CCNA2 (human)): 97%
residual activity (CDK6 CCND1 (human)): 90.1%
residual activity (CDK7 CCNH MNAT1 (human)): 93.3%
residual activity (CDK5 CDK5R1 p35 (human)): 88.7%
residual activity (CDK1 CCNB1 (human)): 101%
residual activity (CDK9 CCNT1 (human)): 93.7%
residual activity (DYRK1B (human)): 100%
residual activity (CDK5 CDK5R1 p25 (human)): 87.6%

SMILES: Cc1cc(C)c(/C=C2\C(=O)Nc3ccccc32)[nH]1
residual activity (PRKCH (human)): 94.7%
residual activity (TLK2 (human)): 98.5%

SMILES: CO[C@H]1[C@@H](OC)C[C@H](C)[C@@H](OC)C2=CC(=O)C=C(NC(=O)/C(C)=C\C=C/[C@H](OC)[C@@H](OC(N)=O)/C(C)=C\[C@@H]1C)C2=O
residual activity (PRKCH (human)): 95.3%
residual activity (STK33 (human)): 97%
residual activity (LTK (human)): 98.5%
residual activity (DYRK1B (human)): 104%

SMILES: O=[N+]([O-])/C=C/c1ccc2c(c1)OCO2
residual activity (PRKCH (human)): 103%
residual activity (STK33 (human)): 94.2%
residual activity (LTK (human)): 96.4%
residual activity (DYRK1B (human)): 112%

Further lines, results first:

residual activity (PRKCH (human)): 94.9%
SMILES: O=C(Nc1nc2ccccc2n1CCN1CCOCC1)c1cccc([N+](=O)[O-])c1

residual activity (CDK6 CCND3 (human)): 103%
residual activity (PRKCH (human)): 106%
residual activity (CDK4 CCND3 (human)): 99.1%
residual activity (MAP3K7 TAB1 (human)): 87.3%
residual activity (FRK (human)): -0.878%
residual activity (CDK3 CCNE1 (human)): 91.7%
residual activity (CDK2 CCNE1 (human)): 95.9%
residual activity (CDK4 CCND1 (human)): 94.4%
residual activity (CDK9 CCNK (human)): 104%
residual activity (CDK2 CCNA2 (human)): 92.4%
residual activity (CDK1 CCNA2 (human)): 96.3%
residual activity (EPHB2 (human)): -0.191%
residual activity (CDK6 CCND1 (human)): 95.5%
residual activity (CDK7 CCNH MNAT1 (human)): 112%
residual activity (CDK5 CDK5R1 p35 (human)): 101%
residual activity (CDK1 CCNB1 (human)): 93.9%
residual activity (CDK9 CCNT1 (human)): 84.1%
residual activity (CDK5 CDK5R1 p25 (human)): 102%
SMILES: Cc1nc(Nc2ncc(C(=O)Nc3c(C)cccc3Cl)s2)cc(N2CCN(CCO)CC2)n1

residual activity (PRKCH (human)): 77%
SMILES: CC(C)n1cnc2c(NCc3ccccc3)nc(NCCCO)nc21
